Experimental data as given in patent US20090048269A1 (AstraZeneca AB, priority 2007, published 2009).

Biological target: T1, human ALK5 (Homo sapiens, UniProt P36897)
T1 sequence (P36897 162-503): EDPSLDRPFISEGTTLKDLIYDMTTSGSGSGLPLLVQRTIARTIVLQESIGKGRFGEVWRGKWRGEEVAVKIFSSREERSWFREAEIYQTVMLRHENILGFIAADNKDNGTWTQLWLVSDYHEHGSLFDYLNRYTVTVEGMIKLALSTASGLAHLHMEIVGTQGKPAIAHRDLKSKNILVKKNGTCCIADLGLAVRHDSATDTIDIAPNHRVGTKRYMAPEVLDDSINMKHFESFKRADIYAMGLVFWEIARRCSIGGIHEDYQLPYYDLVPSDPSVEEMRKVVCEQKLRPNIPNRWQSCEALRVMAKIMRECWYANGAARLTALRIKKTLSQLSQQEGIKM
Experiment: ALK5 Enzyme Assay 2 (fluorescence polarisation probe displacement)
Assay type: binding
Set-up: 6His tagged human ALK5 (residues162-503) was grown and purified from insect cells; 6His; made in house; host or cells: insect cells
Settings: read-out: EAA2: activity (μM) using Enzyme Assay 2
How it was run: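 Recombinant ALK5 (3 μg/mL) incubated with test compound in 50 mM HEPES pH7.4, 10 mM MgCl2, 1 mM DTT, 0.01% CHAPS. Displacement of a fluorescent quinazoline-based ALK5 probe (50 nM final) in presence of 1 μM ATP read by fluorescence polarisation.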

Row | IC50 [µM] | SMILES
1 | 0.0126 | COc1cc(Nc2cc(Oc3ccc(C)nc3-c3ccco3)ccn2)cc(OC)c1OC [Example 165, 4-[2-(Furan-2-yl)-6-methylpyridin-3-yloxy]-N-(3,4,5-trimethoxy-phenyl)pyridin-2-amine]
2 | 0.00488 | Cc1cc(Oc2ccnc(Nc3ccc(CC#N)cc3)c2)c(-c2ccccn2)nc1C [Example 74, 2-(4-{[4-(5,6-Dimethyl-2-pyridin-2-ylpyridin-3-yl)oxypyridin-2-yl]-amino}phenyl)acetonitrile]
3 | 0.0396 | Cc1cc(Oc2ccnc(Nc3cccc(OCCN4CCOCC4)c3)c2)c(-c2ccccn2)nc1C [Example 79, 4-(5,6-Dimethyl-2-pyridin-2-ylpyridin-3-yl)oxy-N-[3-(2-morpholin-4-ylethoxy)phenyl]pyridin-2-amine]
4 | 0.0145 | CC(=O)Nc1cc(Nc2cc(Oc3ccc(C)nc3C)ccn2)ccc1C [Example 127, N-(5-{[4-(2,6-Dimethylpyridin-3-yl)oxypyridin-2-yl]amino}-2-methylphenyl)acetamide]
5 | 0.00829 | Cc1ccc(Oc2ccnc(Nc3cccc(CN4CCNCC4)c3)c2)c(C)n1 [Example 176, 4-(2,6-Dimethylpyridin-3-yl)oxy-N-[3-(Piperazin-1-ylmethyl)-phenyl]pyridin-2-amine]
6 | 0.0457 | Cc1ccc(Oc2ccnc(Nc3cccc(C(=O)NC4CC4)c3)c2)c(C)n1 [Example 194A, N-Cyclopropyl-3-{[4-(2,6-dimethylpyridin-3-yl)oxypyridin-2-yl]-amino}benzamide]
7 | 0.00299 | Cc1ccc(Oc2ccnc(Nc3ccc(CC#N)cc3)c2)c(-c2ccco2)n1 [Example 159, 2-[4-({4-[2-(Furan-2-yl)-6-methylpyridin-3-yl]oxypyridin-2-yl}-amino)phenyl]acetonitrile]
8 | 0.108 | Cc1ccc(Oc2ccnc(Nc3ccc(C(=O)NCCN4CCC(F)(F)CC4)cc3)c2)c(C)n1 [Example 219, N-[2-(4,4-Difluoropiperidin-1-yl)ethyl]-4-{[4-(2,6-dimethyl-pyridin-3-yl)oxypyridin-2-yl]amino}benzamide]
9 | 0.0262 | Cc1ccc(Oc2ccnc(Nc3cccc(CN4CCN(C(=O)CCN)CC4)c3)c2)c(C)n1 [Example 189, 3-Amino-1-{4-[(3-{[4-(2,6-dimethylpyridin-3-yl)oxypyridin-2-yl]-amino}phenyl)methyl]piperazin-1-yl}propan-1-one]
10 | 0.0209 | Cc1ccc(Oc2ccnc(Nc3ccccc3)c2)c(C(=O)NCCc2ccccc2)n1 [Example 95, 3-(2-Anilinopyridin-4-yl)oxy-6-methyl-N-phenethylpyridine-2-carboxamide]
11 | 0.101 | Cc1ccc(Oc2ccnc(Nc3ccc(S(=O)(=O)NCCn4cccn4)cc3)c2)c(C)n1 [Example 136, 4-{[4-(2,6-Dimethylpyridin-3-yl)oxypyridin-2-yl]amino}-N-(2-pyrazol-1-ylethyl)benzenesulfonamide]
12 | 5.41 | Cc1ccc(Oc2ccnc(Nc3ccc(S(=O)(=O)N4CCCCC4)cc3)c2)c(C)n1 [Example 115, 4-(2,6-Dimethylpyridin-3-yl)oxy-N-(4-piperidin-1-ylsulfonyl-phenyl)pyridin-2-amine]
13 | 0.00485 | Cc1cc(Oc2ccnc(Nc3ccc(C(=O)NCCN)cc3)c2)c(-c2ccccn2)nc1C [Example 200, N-(2-Aminoethyl)-4-{[4-(5,6-dimethyl-2-pyridin-2-ylpyridin-3-yl)oxypyridin-2-yl]amino}benzamide]
14 | 3.01 | CCCCCNS(=O)(=O)c1ccc(Nc2cc(Oc3ccc(C)nc3C)ccn2)cc1 [Example 114, 4-{[4-(2,6-Dimethylpyridin-3-yl)oxypyridin-2-yl]amino}-N-pentylbenzenesulfonamide]
15 | 0.0197 | Cc1ccc(Oc2ccnc(Nc3ccc(CO)cc3)c2)c(C)n1 [Example 154, (4-{[4-(2,6-Dimethylpyridin-3-yl)oxypyridin-2-yl]amino}phenyl)-methanol]
16 | 0.505 | Cc1ccc(Oc2ccnc(Nc3ccc(S(=O)(=O)N(C)CCO)cc3)c2)c(C)n1 [Example 112, 4-{[4-(2,6-Dimethylpyridin-3-yl)oxypyridin-2-yl]amino}-N-(2-hydroxyethyl)-N-methylbenzenesulfonamide]
17 | 0.0279 | COC(=O)c1cccc(Nc2cc(Oc3cc(C)c(C)nc3-c3ccccn3)ccn2)c1 [Example 202, Methyl 3-{[4-(5,6-dimethyl-2-pyridin-2-ylpyridin-3-yl)oxypyridin-2-yl]amino}benzoate]
18 | 0.0415 | Cc1ccc(Oc2ccnc(Nc3cccc(C(=O)NCc4cnccn4)c3)c2)c(C)n1 [Example 64, 3-{[4-(2,6-Dimethylpyridin-3-yl)oxypyridin-2-yl]amino}-N-(pyrazin-2-ylmethyl)benzamide]

Row | IC50 [µM] | SMILES
19 | 0.0966 | COc1cc(Nc2cc(Oc3ccc(C)nc3-c3cncnc3)ccn2)cc(OC)c1OC [Example 173, 4-(6-Methyl-2-pyrimidin-5-ylpyridin-3-yl)oxy-N-(3,4,5-trimethoxyphenyl)pyridin-2-amine]
20 | 0.00862 | Cc1cc(Oc2ccnc(Nc3cccc(-c4cnco4)c3)c2)c(-c2ccccn2)nc1C [Example 77, 4-(5,6-Dimethyl-2-pyridin-2-ylpyridin-3-yl)oxy-N-[3-(1.3-oxazol-5-yl)phenyl]pyridin-2-amine]
21 | 0.0827 | Cc1ccc(Oc2ccnc(Nc3cccc(C(=O)N4CCN(CC(N)=O)CC4)c3)c2)c(C)n1 [Example 69, 2-[4-(3-{[4-(2,6-Dimethylpyridin-3-yl)oxypyridin-2-yl]amino}-benzoyl)piperazin-1-yl]acetamide]
22 | 0.00823 | Cc1ccc(Oc2ccnc(Nc3cccc(C(=O)NCc4ncc[nH]4)c3)c2)c(C)n1 [Example 63, 3-{[4-(2,6-Dimethylpyridin-3-yl)oxypyridin-2-yl]amino}-N-(1H-imidazol-2-ylmethyl)benzamide]
23 | 0.108 | Cc1ccc(Oc2ccnc(Nc3ccc(C(=O)NCCn4cccc4)cc3)c2)c(C)n1 [Example 216, 4-{[4-(2,6-Dimethylpyridin-3-yl)oxypyridin-2-yl]amino}-N-(2-pyrrol-1-ylethyl)benzamide]
24 | 0.12 | Cc1ccc(Oc2ccnc(Nc3ccc(S(=O)(=O)NCCn4ccnc4)cc3)c2)c(C)n1 [Example 135, 4-{[4-(2,6-Dimethylpyridin-3-yl)oxypyridin-2-yl]amino}-N-(2-imidazol-1-ylethyl)benzenesulfonamide]
25 | 0.0128 | Cc1ccc(Oc2ccnc(Nc3ccc(S(N)(=O)=O)cc3)c2)c(-c2ccco2)n1 [Example 160, 4-({4-[2-(Furan-2-yl)-6-methylpyridin-3-yl]oxypyridin-2-yl}-amino)benzenesulfonamide]
26 | 0.0143 | Cc1ccc(Oc2ccnc(Nc3cccc(C(=O)N4CC[C@H](S(C)(=O)=O)C4)c3)c2)c(C)n1 (single isomer, unassigned) [Example 138]
27 | 0.0113 | Cc1ccc(Oc2ccnc(Nc3cccc(CO)c3)c2)c(C)n1 [Example 174, (3-{[4-(2,6-Dimethylpyridin-3-yl)oxypyridin-2-yl]amino}phenyl)-methanol]
28 | 0.0495 | Cc1ccc(Oc2ccnc(Nc3cccc(C(=O)N4CC[C@@H](S(C)(=O)=O)C4)c3)c2)c(C)n1 (single isomer, unassigned) [Example 139]
29 | 0.199 | Cc1ccc(Oc2ccnc(Nc3ccc(S(=O)(=O)NCCN4CCCCC4)cc3)c2)c(C)n1 [Example 134, 4-{[4-(2,6-Dimethylpyridin-3-yl)oxypyridin-2-yl]amino}-N-(2-piperidin-1-ylethyl)benzenesulfonamide]
30 | 0.154 | Cc1ccc(Oc2ccnc(Nc3ccccc3)c2)c(C(=O)NCC2CC2)n1 [Example 93, 3-(2-Anilinopyridin-4-yl)oxy-N-(cyclopropylmethyl)-6-methyl-pyridine-2-carboxamide]
31 | 0.0286 | Cc1ccc(Oc2ccnc(Nc3ccc(CC#N)cc3)c2)c(C)n1 [Example 91, 2-(4-{[4-(2,6-Dimethylpyridin-3-yl)oxypyridin-2-yl]amino}phenyl)-acetonitrile]
32 | 0.00855 | Cc1ccc(Oc2ccnc(Nc3ccccn3)c2)c(-c2ccco2)n1 [Example 161, 4-[2-(Furan-2-yl)-6-methylpyridin-3-yl]oxy-N-pyridin-2-yl-pyridin-2-amine]
33 | 0.0362 | Cc1ccc(Oc2ccnc(Nc3ccc(C(=O)NCCN4CCS(=O)(=O)CC4)cc3)c2)c(C)n1 [Example 215, 4-{[4-(2,6-Dimethylpyridin-3-yl)oxypyridin-2-yl]amino}-N-[2-(1,1-dioxo-1,4-thiazinan-4-yl)ethyl]benzamide]
34 | 0.0731 | Cc1cc(Oc2ccnc(Nc3cc(CO)cc(S(N)(=O)=O)c3)c2)c(-c2ccccn2)nc1C [Example 87, 3-{[4-(5,6-Dimethyl-2-pyridin-2-ylpyridin-3-yl)oxypyridin-2-yl]-amino}-5-(hydroxymethyl)benzenesulfonamide]
35 | 0.077 | Cc1ccc(Oc2ccnc(Nc3ccc(S(C)(=O)=O)cc3)c2)c(C)n1 [Example 124, 4-(2,6-Dimethylpyridin-3-yl)oxy-N-(4-methylsulfonylphenyl)-pyridin-2-amine]
36 | 0.592 | CC(=O)NS(=O)(=O)c1ccc(Nc2cc(Oc3ccc(C)nc3C)ccn2)cc1 [Example 107, N-{4-[4-(2,6-Dimethylpyridin-3-yloxy)pyridin-2-ylamino]phenyl-sulfonyl}acetamide]

Row | SMILES | IC50 [µM]
37 | Cc1ccc(Oc2ccnc(Nc3cccc(CN4CCN(C(=O)NC56CC7CC(CC(C7)C5)C6)CC4)c3)c2)c(C)n1 [Example 177] | 0.0469
